Key:
Plasmodium falciparum [1] = experiment: Antiplasmodial activity against chloroquine-sensitive Plasmodium falciparum GHA infected in human erythrocytes after 72 hrs using malstat staining by spectrophotometry; assay type: functional, organism-based
[2] = Cytotoxicity against human MRC5 SV2 cells after 72 hrs using resazurin by fluorimetry; assay type: cell-based
[3] = Selectivity ratio of CC50 for human MRC5 SV2 cells to IC50 for chloroquine-sensitive Plasmodium falciparum GHA strain; assay type: ADME, cell-based; settings: read-out: Ratio CC50/IC50
[4] = biological target: cGMP-specific 3',5'-cyclic phosphodiesterase (Bos taurus, UniProt Q28156); experiment: Inhibition of bovine PDE5 after 24 hrs by time-resolved fluorescence resonance energy transfer assay
[5] = Selectivity index, ratio of IC50 for chloroquine-sensitive Plasmodium falciparum GHA to IC50 for bovine PDE5
[6] = Selectivity index, ratio of IC50 for chloroquine-sensitive Plasmodium falciparum K1 to IC50 for bovine PDE5
Plasmodium falciparum [7] = experiment: Antiplasmodial activity against chloroquine-sensitive Plasmodium falciparum K1 infected in human erythrocytes after 72 hrs using malstat staining by spectrophotometry; assay type: functional, organism-based; settings: K1, 72 h
[8] = biological target: cGMP-dependent 3',5'-cyclic phosphodiesterase (Homo sapiens) (UniProt O00408); experiment: Inhibition of human recombinant PDE2A expressed in Sf9 cells at 10 uM after 30 mins by HTRF assay
[9] = biological target: Phosphodiesterase 4 (Homo sapiens) (UniProt P27815+Q08499+Q07343+Q08493); experiment: Inhibition of human recombinant PDE4A1A expressed in Sf9 cells at 10 uM after 30 mins by HTRF assay
Bos taurus = species on record: Bos taurus; experiment: Inhibition of bovine PDE6 using [3H]5GMP at 10 uM after 60 mins by scintillation counting
[10] = biological target: High affinity cAMP-specific and IBMX-insensitive 3',5'-cyclic phosphodiesterase 8A (Homo sapiens) (UniProt O60658); experiment: Inhibition of human recombinant PDE8A1 expressed in Sf9 cells at 10 uM after 30 mins by HTRF assay
[11] = biological target: cAMP and cAMP-inhibited cGMP 3',5'-cyclic phosphodiesterase 10A (Homo sapiens) (UniProt Q9Y233); experiment: Inhibition of human recombinant PDE10A1 expressed in Sf9 cells at 10 uM after 30 mins by HTRF assay
[12] = biological target: Dual 3',5'-cyclic-AMP and -GMP phosphodiesterase 11A (Homo sapiens) (UniProt Q9HCR9); experiment: Inhibition of human recombinant PDE11A4 expressed in Sf9 cells at 10 uM after 30 mins by HTRF assay
[13] = biological target: Dual specificity calcium/calmodulin-dependent 3',5'-cyclic nucleotide phosphodiesterase 1B (Homo sapiens) (UniProt Q01064); experiment: Inhibition of human recombinant PDE1B expressed in Sf9 cells at 10 uM after 30 mins by HTRF assay
[14] = biological target: High affinity 3',5'-cyclic-AMP phosphodiesterase 7A (Homo sapiens) (UniProt Q13946); experiment: Inhibition of human recombinant PDE7A expressed in Sf9 cells at 10 uM after 30 mins by HTRF assay
[15] = biological target: cGMP-specific 3',5'-cyclic phosphodiesterase (Homo sapiens) (UniProt O76074); settings: 10 uM
Description: Inhibition of human PDE5 using [3H]5GMP at 10 uM after 60 mins by scintillation counting

[16] = biological target: cGMP-inhibited 3',5'-cyclic phosphodiesterase 3A (Homo sapiens) (UniProt Q14432); experiment: Inhibition of human recombinant PDE3A expressed in Sf9 cells at 10 uM after 30 mins by HTRF assay
Sequence of cGMP-inhibited 3',5'-cyclic phosphodiesterase 3A (Homo sapiens) (Q14432 whole entry): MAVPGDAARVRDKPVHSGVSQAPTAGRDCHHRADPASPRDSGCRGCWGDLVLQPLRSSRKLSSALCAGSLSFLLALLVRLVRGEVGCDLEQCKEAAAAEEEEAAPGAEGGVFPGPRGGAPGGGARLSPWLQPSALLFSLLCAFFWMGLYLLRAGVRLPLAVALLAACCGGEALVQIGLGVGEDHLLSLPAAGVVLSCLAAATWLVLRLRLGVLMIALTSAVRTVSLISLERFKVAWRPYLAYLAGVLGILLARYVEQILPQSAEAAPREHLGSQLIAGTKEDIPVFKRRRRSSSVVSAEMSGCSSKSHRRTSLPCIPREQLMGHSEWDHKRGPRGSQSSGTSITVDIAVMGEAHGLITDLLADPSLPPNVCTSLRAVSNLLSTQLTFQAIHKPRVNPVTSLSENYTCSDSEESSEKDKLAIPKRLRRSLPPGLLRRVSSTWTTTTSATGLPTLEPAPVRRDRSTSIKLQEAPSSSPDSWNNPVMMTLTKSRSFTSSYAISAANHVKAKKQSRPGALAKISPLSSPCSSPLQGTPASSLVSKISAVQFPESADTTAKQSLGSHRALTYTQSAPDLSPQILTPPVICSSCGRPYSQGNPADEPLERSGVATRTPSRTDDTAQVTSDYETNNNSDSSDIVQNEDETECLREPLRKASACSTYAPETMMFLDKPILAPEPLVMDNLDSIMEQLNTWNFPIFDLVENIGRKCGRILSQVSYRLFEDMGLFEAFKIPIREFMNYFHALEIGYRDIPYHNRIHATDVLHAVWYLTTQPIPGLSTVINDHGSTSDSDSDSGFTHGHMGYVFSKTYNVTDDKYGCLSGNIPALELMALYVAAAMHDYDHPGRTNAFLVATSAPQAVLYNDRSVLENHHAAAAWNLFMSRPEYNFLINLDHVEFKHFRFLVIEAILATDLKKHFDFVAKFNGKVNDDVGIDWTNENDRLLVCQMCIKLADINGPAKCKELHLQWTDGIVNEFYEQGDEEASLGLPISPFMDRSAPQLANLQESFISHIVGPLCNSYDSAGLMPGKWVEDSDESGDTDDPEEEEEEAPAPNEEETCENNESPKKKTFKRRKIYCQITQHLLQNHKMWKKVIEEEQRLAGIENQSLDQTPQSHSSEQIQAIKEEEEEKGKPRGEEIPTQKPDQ

Sequence of High affinity 3',5'-cyclic-AMP phosphodiesterase 7A (Homo sapiens) (Q13946 whole entry): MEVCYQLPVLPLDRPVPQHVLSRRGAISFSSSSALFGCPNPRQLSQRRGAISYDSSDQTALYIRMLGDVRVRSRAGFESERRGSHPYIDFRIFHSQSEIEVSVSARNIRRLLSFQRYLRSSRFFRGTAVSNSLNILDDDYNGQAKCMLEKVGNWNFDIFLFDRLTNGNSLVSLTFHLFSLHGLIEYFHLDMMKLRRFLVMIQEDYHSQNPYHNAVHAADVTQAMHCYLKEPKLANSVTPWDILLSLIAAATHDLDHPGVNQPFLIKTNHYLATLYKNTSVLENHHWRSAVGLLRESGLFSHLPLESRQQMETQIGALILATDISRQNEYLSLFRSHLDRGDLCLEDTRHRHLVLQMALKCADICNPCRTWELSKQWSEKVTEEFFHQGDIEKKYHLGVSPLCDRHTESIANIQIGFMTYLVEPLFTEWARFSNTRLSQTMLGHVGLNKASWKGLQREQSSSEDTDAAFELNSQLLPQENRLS
Sequence of cGMP-dependent 3',5'-cyclic phosphodiesterase (Homo sapiens) (O00408 whole entry): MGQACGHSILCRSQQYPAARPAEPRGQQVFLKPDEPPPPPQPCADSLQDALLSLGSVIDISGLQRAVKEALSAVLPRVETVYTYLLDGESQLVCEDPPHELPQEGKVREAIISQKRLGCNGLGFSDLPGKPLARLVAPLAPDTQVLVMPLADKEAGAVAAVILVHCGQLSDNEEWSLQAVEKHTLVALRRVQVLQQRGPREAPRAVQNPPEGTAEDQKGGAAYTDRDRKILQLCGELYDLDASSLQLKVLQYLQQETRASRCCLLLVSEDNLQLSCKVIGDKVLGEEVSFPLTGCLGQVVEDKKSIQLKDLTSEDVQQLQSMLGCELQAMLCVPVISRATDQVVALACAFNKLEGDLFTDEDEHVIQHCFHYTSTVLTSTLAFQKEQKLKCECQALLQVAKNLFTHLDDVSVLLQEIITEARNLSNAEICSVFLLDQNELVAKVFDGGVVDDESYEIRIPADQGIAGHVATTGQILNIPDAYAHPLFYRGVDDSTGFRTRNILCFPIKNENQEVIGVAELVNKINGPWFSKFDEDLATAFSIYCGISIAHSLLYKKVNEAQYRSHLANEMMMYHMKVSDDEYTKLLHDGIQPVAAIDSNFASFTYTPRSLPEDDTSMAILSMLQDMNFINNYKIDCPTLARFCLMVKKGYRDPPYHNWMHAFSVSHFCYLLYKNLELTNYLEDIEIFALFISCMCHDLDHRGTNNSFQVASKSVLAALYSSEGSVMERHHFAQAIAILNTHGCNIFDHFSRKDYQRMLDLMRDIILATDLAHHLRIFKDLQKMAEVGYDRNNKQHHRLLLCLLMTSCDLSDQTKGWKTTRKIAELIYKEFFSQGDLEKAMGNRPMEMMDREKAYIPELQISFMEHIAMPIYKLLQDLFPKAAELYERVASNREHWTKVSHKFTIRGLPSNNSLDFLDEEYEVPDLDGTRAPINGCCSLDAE
Sequence of cAMP and cAMP-inhibited cGMP 3',5'-cyclic phosphodiesterase 10A (Homo sapiens) (Q9Y233 whole entry): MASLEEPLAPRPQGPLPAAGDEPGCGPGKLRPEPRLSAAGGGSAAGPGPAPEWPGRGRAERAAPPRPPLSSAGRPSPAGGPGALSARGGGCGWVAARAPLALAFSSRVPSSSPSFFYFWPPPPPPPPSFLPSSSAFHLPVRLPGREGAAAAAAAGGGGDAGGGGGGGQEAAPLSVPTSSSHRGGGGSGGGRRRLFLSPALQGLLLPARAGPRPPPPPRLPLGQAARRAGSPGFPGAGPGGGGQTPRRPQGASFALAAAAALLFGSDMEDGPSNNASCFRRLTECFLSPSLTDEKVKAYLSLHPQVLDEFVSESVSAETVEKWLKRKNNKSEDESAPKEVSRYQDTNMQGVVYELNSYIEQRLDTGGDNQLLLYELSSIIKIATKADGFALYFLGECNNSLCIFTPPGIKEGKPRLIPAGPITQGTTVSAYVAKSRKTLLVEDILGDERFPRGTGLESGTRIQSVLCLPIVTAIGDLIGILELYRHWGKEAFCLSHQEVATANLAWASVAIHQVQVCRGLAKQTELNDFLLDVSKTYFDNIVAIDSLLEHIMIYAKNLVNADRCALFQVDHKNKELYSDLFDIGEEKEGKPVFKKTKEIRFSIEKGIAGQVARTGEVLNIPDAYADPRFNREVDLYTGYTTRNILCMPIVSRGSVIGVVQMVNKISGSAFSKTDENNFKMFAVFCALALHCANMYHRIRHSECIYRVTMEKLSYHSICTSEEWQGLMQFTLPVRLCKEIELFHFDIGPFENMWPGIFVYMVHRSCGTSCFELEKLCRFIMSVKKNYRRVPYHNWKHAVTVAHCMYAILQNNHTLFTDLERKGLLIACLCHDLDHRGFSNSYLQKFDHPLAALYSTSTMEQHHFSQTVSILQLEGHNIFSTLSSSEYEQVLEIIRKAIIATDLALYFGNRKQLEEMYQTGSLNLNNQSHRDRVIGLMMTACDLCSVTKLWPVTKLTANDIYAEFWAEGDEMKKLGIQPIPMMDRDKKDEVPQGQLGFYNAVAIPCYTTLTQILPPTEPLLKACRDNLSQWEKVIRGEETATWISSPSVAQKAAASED
Sequence of Dual 3',5'-cyclic-AMP and -GMP phosphodiesterase 11A (Homo sapiens) (Q9HCR9 whole entry, looked up): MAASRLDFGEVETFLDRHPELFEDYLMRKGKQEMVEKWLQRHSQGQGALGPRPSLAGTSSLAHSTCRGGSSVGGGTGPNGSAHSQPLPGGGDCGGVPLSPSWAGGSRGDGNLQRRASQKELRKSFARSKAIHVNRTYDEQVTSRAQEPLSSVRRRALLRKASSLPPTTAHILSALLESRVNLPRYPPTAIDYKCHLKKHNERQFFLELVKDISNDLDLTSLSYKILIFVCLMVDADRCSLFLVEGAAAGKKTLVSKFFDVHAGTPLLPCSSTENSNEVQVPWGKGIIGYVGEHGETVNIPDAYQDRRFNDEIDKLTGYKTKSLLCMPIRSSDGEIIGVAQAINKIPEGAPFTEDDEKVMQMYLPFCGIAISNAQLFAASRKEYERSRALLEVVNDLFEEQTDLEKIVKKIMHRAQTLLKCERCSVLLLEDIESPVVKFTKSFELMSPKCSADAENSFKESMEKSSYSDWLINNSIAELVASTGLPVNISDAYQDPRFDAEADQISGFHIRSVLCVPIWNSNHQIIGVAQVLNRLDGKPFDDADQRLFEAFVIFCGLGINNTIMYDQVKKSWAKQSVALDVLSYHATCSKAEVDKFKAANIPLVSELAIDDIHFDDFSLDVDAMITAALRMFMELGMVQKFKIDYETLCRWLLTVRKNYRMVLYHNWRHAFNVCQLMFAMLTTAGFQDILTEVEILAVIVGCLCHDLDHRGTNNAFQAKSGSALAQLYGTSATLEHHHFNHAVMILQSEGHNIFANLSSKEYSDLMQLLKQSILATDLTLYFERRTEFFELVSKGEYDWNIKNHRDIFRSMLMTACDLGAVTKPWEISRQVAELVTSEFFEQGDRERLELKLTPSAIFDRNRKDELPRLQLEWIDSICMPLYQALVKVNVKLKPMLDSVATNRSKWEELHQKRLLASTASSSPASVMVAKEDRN
Sequence of Dual specificity calcium/calmodulin-dependent 3',5'-cyclic nucleotide phosphodiesterase 1B (Homo sapiens) (Q01064 whole entry): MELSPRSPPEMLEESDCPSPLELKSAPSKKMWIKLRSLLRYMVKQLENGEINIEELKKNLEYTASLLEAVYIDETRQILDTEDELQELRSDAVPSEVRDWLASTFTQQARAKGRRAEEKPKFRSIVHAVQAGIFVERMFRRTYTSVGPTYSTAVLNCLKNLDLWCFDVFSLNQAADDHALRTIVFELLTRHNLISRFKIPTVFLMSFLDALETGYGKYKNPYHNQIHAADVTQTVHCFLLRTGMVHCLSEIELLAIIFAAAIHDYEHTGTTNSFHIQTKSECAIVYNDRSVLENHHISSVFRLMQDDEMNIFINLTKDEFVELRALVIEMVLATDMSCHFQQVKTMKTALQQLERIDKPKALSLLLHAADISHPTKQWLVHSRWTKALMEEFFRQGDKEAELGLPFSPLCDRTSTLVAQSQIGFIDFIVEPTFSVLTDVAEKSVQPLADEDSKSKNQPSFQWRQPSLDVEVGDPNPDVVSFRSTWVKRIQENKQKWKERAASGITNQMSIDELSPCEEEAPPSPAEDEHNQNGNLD

Row | IC50 (Plasmodium falciparum [1]) [µM] | IC50 [4] [µM] | Structure (SMILES) | CC50 at 72 h [2] [µM] | selectivity ratio [3] | other results
1 | 0.52 | > 1 | COc1cc([C@@H]2c3[nH]c4ccccc4c3C[C@@H]3C(=O)N([C@@H]4CCN(Cc5ccccc5)C4)CC(=O)N23)ccc1O | 23 | 44 | –
2 | 0.8 | 0.001 | Cn1ccnc1CN1CC[C@@H](N2CC(=O)N3[C@H](c4ccc5c(c4)OCO5)c4[nH]c5ccccc5c4C[C@@H]3C2=O)C1 | 50 | 50 | Ratio IC50 [5]: 0.003
3 | – | 0.005 | O=C1[C@H]2Cc3c([nH]c4ccccc34)[C@@H](c3ccc4c(c3)OCO4)N2C(=O)CN1[C@@H]1CCN(Cc2ccccc2)C1 | 10 | 20 | Ratio IC50 [5]: 0.014
4 | > 64 | – | CN1CC(=O)N2[C@H](c3ccc4c(c3)OCO4)c3[nH]c4ccccc4c3C[C@@H]2C1=O | > 64 | – | –
5 | 0.22 | 0.001 | CC(C)(C)OC(=O)NCCN1CC[C@@H](N2CC(=O)N3[C@H](c4ccc5c(c4)OCO5)c4[nH]c5ccccc5c4C[C@@H]3C2=O)C1 | 154 | 154 | Ratio IC50 [5]: 0.018
6 | 0.6 | 0.028 | O=C1[C@H]2Cc3c([nH]c4ccccc34)[C@@H](c3ccc4nsnc4c3)N2C(=O)CN1[C@@H]1CCN(Cc2ccccc2)C1 | 30 | 50 | –
7 | 6 | – | O=C1[C@H]2Cc3c([nH]c4ccccc34)[C@@H](c3ccc4nonc4c3)N2C(=O)CN1[C@@H]1CCN(Cc2ccccc2)C1 | > 64 | > 10 | –
8 | – | > 10 | COc1ccc([C@@H]2c3[nH]c4ccccc4c3C[C@@H]3C(=O)N([C@@H]4CCN(CCNC(=O)OC(C)(C)C)C4)CC(=O)N23)cc1OC | 10 | 10 | Ratio IC50 [6]: > 13; IC50 (Plasmodium falciparum [7]): 0.74 µM
9 | – | – | O=C1[C@H]2Cc3c([nH]c4ccccc34)[C@@H](c3ccc4c(c3)OCO4)N2C(=O)CN1C1CCN(Cc2ccccc2)CC1 | 7 | – | –
10 | > 64 | > 10 | COc1ccc([C@@H]2c3[nH]c4ccccc4c3C[C@@H]3C(=O)N(C)CC(=O)N23)cc1OC | > 64 | > 64 | –
11 | 5 | – | O=C1[C@H]2Cc3c([nH]c4ccccc34)[C@@H](c3ccc4c(c3)OCCO4)N2C(=O)CN1[C@@H]1CCN(Cc2ccccc2)C1 | > 64 | > 13 | –
12 | 11 | – | O=C1[C@H]2Cc3c([nH]c4ccccc34)[C@@H](c3ccc(OC(F)F)cc3)N2C(=O)CN1[C@@H]1CCN(Cc2ccccc2)C1 | > 64 | > 6 | –
13 | 0.25 | – | O=C1[C@H]2Cc3c([nH]c4ccccc34)[C@@H](c3ccc4c(c3)OCO4)N2C(=O)CN1[C@@H]1CCN(CC2CCCC2)C1 | 22 | 22 | –
14 | 7 | – | O=C1[C@H]2Cc3c([nH]c4ccccc34)[C@@H](c3ccc4nnnn4c3)N2C(=O)CN1[C@@H]1CCN(Cc2ccccc2)C1 | 21 | 3 | –
15 | 11 | – | O=C1[C@H]2Cc3c([nH]c4ccccc34)[C@@H](c3ccc4c(c3)OC(F)(F)O4)N2C(=O)CN1[C@@H]1CCN(Cc2ccccc2)C1 | 8 | 1 | –
16 | 10 | – | COc1ccc(CN2CC[C@@H](N3CC(=O)N4[C@H](c5ccc6c(c5)OCO6)c5[nH]c6ccccc6c5C[C@@H]4C3=O)C2)cc1 | < 1 | < 1 | –
17 | 0.53 | 0.007 | O=C1[C@H]2Cc3c([nH]c4ccccc34)[C@@H](c3ccc4c(c3)OCO4)N2C(=O)CN1[C@@H]1CCN(Cc2ccc3c(c2)OCO3)C1 | 78 | 78 | Ratio IC50 [5]: 0.013
18 | 4 | 0.002 | O=C1[C@H]2Cc3c([nH]c4ccccc34)[C@@H](c3ccc4c(c3)OCO4)N2C(=O)CN1[C@@H]1CCN(Cc2ccccn2)C1 | 13 | 13 | –
19 | 7 | – | CN(C)c1ccc(CN2CC[C@@H](N3CC(=O)N4[C@H](c5ccc6c(c5)OCO6)c5[nH]c6ccccc6c5C[C@@H]4C3=O)C2)cc1 | < 1 | < 1 | –
20 | 12 | – | O=C1[C@H]2Cc3c([nH]c4ccccc34)[C@@H](c3ccc4c(c3)OCO4)N2C(=O)CN1[C@@H]1CCN(CCCCCO)C1 | 3 | 3 | –
21 | 0.7 | – | O=C1[C@H]2Cc3c([nH]c4ccccc34)[C@@H](c3ccc4c(c3)OCO4)N2C(=O)CN1[C@@H]1CCN(CCOc2ccccc2)C1 | 11 | 11 | –
22 | – | 5.6 | COc1ccc([C@@H]2c3[nH]c4ccccc4c3C[C@@H]3C(=O)N([C@@H]4CCN(Cc5nccn5C)C4)CC(=O)N23)cc1OC | 37 | 37 | Ratio IC50 [6]: 3; IC50 (Plasmodium falciparum [7]): 1.6 µM
23 | 0.9 | – | O=C1[C@H]2Cc3c([nH]c4ccccc34)[C@@H](c3ccc4c(c3)OCO4)N2C(=O)CN1[C@@H]1CCN(CC2CCCCC2)C1 | 7 | 7 | –
24 | 5.3 | – | O=C1[C@H]2Cc3c([nH]c4ccccc34)[C@@H](c3ccc4c(c3)OCO4)N2C(=O)CN1[C@@H]1CCN(CCc2ccccc2)C1 | 1 | 1 | –
25 | – | > 10 | COc1ccc([C@@H]2c3[nH]c4ccccc4c3C[C@@H]3C(=O)N([C@@H]4CCN(Cc5ccc6c(c5)OCO6)C4)CC(=O)N23)cc1OC | 25 | 25 | Ratio IC50 [6]: > 10; IC50 (Plasmodium falciparum [7]): 0.95 µM
26 | 0.61 | 0.056 | COc1ccc([C@@H]2c3[nH]c4ccccc4c3C[C@@H]3C(=O)N([C@@H]4CCN(Cc5ccccc5)C4)CC(=O)N23)cc1O | 22 | 36 | –
27 | 2 | 0.003 | CN(C)C(=O)CN1CC[C@@H](N2CC(=O)N3[C@H](c4ccc5c(c4)OCO5)c4[nH]c5ccccc5c4C[C@@H]3C2=O)C1 | > 32 | > 32 | –
28 | 11 | – | O=C1[C@H]2Cc3c([nH]c4ccccc34)[C@@H](c3ccc(Cl)nc3)N2C(=O)CN1[C@@H]1CCN(Cc2ccccc2)C1 | 14 | 1 | –
29 | 12 | – | CCCCN1CC[C@@H](N2CC(=O)N3[C@H](c4ccc5c(c4)OCO5)c4[nH]c5ccccc5c4C[C@@H]3C2=O)C1 | < 1 | < 1 | –
30 | 0.42 | 5.2 | COc1ccc([C@@H]2c3[nH]c4ccccc4c3C[C@@H]3C(=O)N([C@@H]4CCN(Cc5ccccc5)C4)CC(=O)N23)cc1OC | 32 | 76 | inhibition [8]: 0%; inhibition [9]: 1%; inhibition (Bos taurus): 18%; inhibition [10]: 3%; inhibition [11]: 0%; inhibition [12]: 30%; inhibition [13]: 0%; inhibition [14]: 0%; Ratio IC50 [5]: 12.4; inhibition [15]: 48%; inhibition [16]: 1%
